The results in this text go back to US9204653B2, “5-fluoro pyrimidine derivatives” (DOW AGROSCIENCES LLC, priority 2008, dated 2015).

Like-named read-outs stand apart in the source and are kept apart here.

In this assay the test system is Mycosphaerella graminicola; Anamorph: Septoria tritici; Bayer Code SEPTTR. The assay is described as follows: Leaf blotch of wheat, foliar fungicide treatment, one day protectant (1DP) or three day curative (3DC). The class given is in vivo, Septoria tritici on wheat plants (variety Yuma). Particulars: Zymoseptoria tritici; for pest or weed control at 50 ppm / pest or weed control at 200 ppm: % disease control rating.

The mark [1] stands for this setting: 24 h, one day protectant (1DP), 25 ppm (first 1DP column), percent control rating, read-out: SETTTR 1DP 25 ppm.
Setting [2] is: 24 h, one day protectant (1DP), 25 ppm as printed (second 1DP column), percent control rating, read-out: SETTTR 1DP 25 ppm.
[3] abbreviates: 72 h, three day curative (3DC), 25 ppm, percent control rating, read-out: SEPTTR 3DC 25 ppm.
The mark [4] stands for this setting: 72 h, three day curative (3DC), percent control rating, read-out: SEPTTR 3DC 100 ppm.
The mark [5] stands for this setting: 24 h, one day protectant (1DP), 25 ppm, rating of percent disease control, read-out: SETTTR 1DP 25 ppm.
The mark [6] stands for this setting: 24 h, one day protectant (1DP), rating of percent disease control, read-out: SEPTTR 1DP 100 ppm.
Where [7] appears, read: 72 h, three day curative (3DC), 25 ppm, rating of percent disease control, read-out: SEPTTR 3DC 25 ppm.
The mark [8] stands for this setting: 72 h, three day curative (3DC), rating of percent disease control, read-out: SEPTTR 3DC 100 ppm.
[9] abbreviates: 24 h, one day protectant, 25 ppm, rating of percent disease control, read-out: SETTTR 1DP 25 ppm.
Where [10] appears, read: 24 h, one day protectant, rating of percent disease control, read-out: SEPTTR 1DP 100 ppm.
The mark [11] stands for this setting: 72 h, three day curative, 25 ppm, rating of percent disease control, read-out: SEPTTR 3DC 25 ppm.
Where [12] appears, read: 72 h, three day curative, rating of percent disease control, read-out: SEPTTR 3DC 100 ppm.

As to `Cc1ccc(COc2ncc(F)c(NNc3ccc(Cl)nn3)n2)cc1` [Compound 1040], the pest or weed control at 25 ppm reads like this: under setting [1], 0 to 25%; under setting [2], 0 to 25%; under setting [3], 0 to 25%. Also, the pest or weed control at 100 ppm under setting [4] fell in the range of 0 to 25%.

Regarding `COc1c(F)cc(F)cc1COc1ncc(F)c(N)n1` [Compound 796], the pest or weed control at 25 ppm is, setting by setting: under setting [5], 76 to 100%; under setting [7], 76 to 100%. The pest or weed control at 100 ppm under setting [6] lay in the range of 76 to 100% and the pest or weed control at 100 ppm under setting [8] fell in the range of 76 to 100%.

In the case of `Fc1cnc(OCc2ccc(C(F)(F)F)cc2)nc1NCc1ccc(Cl)cc1` [Compound 811], where the note is “24 h, one day protectant”, the pest or weed control at 50 ppm lay in the range of 76 to 100% and the pest or weed control at 200 ppm lay within 76 to 100%.

Take `CCOCCOc1cccc(COc2ncc(F)c(N)n2)c1` [Compound 752]: the pest or weed control at 25 ppm runs as follows: under setting [5], 76 to 100%; under setting [7], 76 to 100%. The pest or weed control at 100 ppm by setting is: under setting [6], 76 to 100%; under setting [8], 76 to 100%.

For `O=[N+]([O-])c1ccccc1SNc1nc(OCc2cccc(C(F)(F)F)c2F)ncc1F` [Compound 758], the pest or weed control at 25 ppm under setting [5] was in the range of 26 to 50% and the pest or weed control at 25 ppm under setting [7] lay within 26 to 50%. Moreover, the pest or weed control at 100 ppm fell in the range of 76 to 100% under setting [6] and 51 to 75% under setting [8].

With `O=C(Nc1ccccc1)Nc1nc(OCc2ccc(F)cc2)ncc1F` [Compound 485], the pest or weed control at 25 ppm runs as follows: under setting [5], 0 to 25%; under setting [7], 0 to 25%. The pest or weed control at 100 ppm runs as follows: under setting [6], 0 to 25%; under setting [8], 0 to 25%.

`Fc1cnc(OCCc2ccccc2)nc1NCc1ccc(Cl)cc1` [Compound 911]: for the setting “24 h, one day protectant”, the pest or weed control at 50 ppm lay within 0 to 25% and the pest or weed control at 200 ppm fell in the range of 0 to 25%.

As to `COc1cccc(COc2ncc(F)c(/N=C3\CCCCN3C)n2)c1` [Compound 327], the pest or weed control at 25 ppm runs as follows: under setting [5], 51 to 75%; under setting [7], 51 to 75%. In addition, the pest or weed control at 100 ppm fell in the range of 76 to 100% under setting [6] and 76 to 100% under setting [8].

On to `CCOC(=O)Nc1nc(OC(C)c2ccc(F)cc2)ncc1F` (stereo not drawn) [Compound 749], for which the pest or weed control at 25 ppm fell in the range of 76 to 100% under setting [5] and 76 to 100% under setting [7]. Moreover, the pest or weed control at 100 ppm fell in the range of 76 to 100% under setting [6] and 76 to 100% under setting [8].

For the compound `CC[Si](CC)(CC)Nc1nc(OCCc2ccc(Cl)cc2)ncc1F` [Compound 507], the pest or weed control at 25 ppm under setting [5] was 51 to 75% and the pest or weed control at 25 ppm under setting [7] was 0 to 25%. Also, the pest or weed control at 100 ppm is, setting by setting: under setting [6], 76 to 100%; under setting [8], 76 to 100%.

Regarding `N#C/C(=N\Oc1ncc(F)c(N)n1)c1ccccc1` [Compound 640], the pest or weed control at 25 ppm by setting is: under setting [9], 76 to 100%; under setting [11], 76 to 100%. For the same compound, the pest or weed control at 100 ppm fell in the range of 76 to 100% under setting [10] and 76 to 100% under setting [12].

`O=C(NCc1ccccc1)Nc1nc(O)ncc1F` [Compound 969]: the pest or weed control at 25 ppm by setting is: under setting [1], 26 to 50%; under setting [2], 26 to 50%; under setting [3], 26 to 50%. Besides, the pest or weed control at 100 ppm under setting [4] was 51 to 75%.

On to `CC(C)=NOc1ncc(F)c(N)n1` [Compound 997], for which the pest or weed control at 25 ppm by setting is: under setting [1], 76 to 100%; under setting [2], 76 to 100%; under setting [3], 76 to 100%. Moreover, the pest or weed control at 100 ppm under setting [4] was in the range of 76 to 100%.

`CN(C)/C=N/c1nc(OS(=O)(=O)c2cccs2)ncc1F` [Compound 89]: the pest or weed control at 25 ppm lay in the range of 76 to 100% (24 h, one day protectant (1DP), 25 ppm, percent disease control rating, read-out: SETTTR 1DP 25 ppm) and 76 to 100% (72 h, three day curative (3DC), 25 ppm, percent disease control rating, read-out: SEPTTR 3DC 25 ppm). For the same compound, the pest or weed control at 100 ppm runs as follows: (24 h, one day protectant (1DP), percent disease control rating, read-out: SEPTTR 1DP 100 ppm) 76 to 100%; (72 h, three day curative (3DC), percent disease control rating, read-out: SEPTTR 3DC 100 ppm) 76 to 100%.

With `CN1CCCC/C1=N\c1nc(OCc2cccc(F)c2)ncc1F` [Compound 326], the pest or weed control at 25 ppm is, setting by setting: under setting [5], 76 to 100%; under setting [7], 51 to 75%. The pest or weed control at 100 ppm runs as follows: under setting [6], 76 to 100%; under setting [8], 76 to 100%.

Take `Cc1cccc(COc2ncc(F)c(N)n2)c1C` [Compound 602]: the pest or weed control at 25 ppm lay within 0 to 25% under setting [9] and 0 to 25% under setting [11]. The pest or weed control at 100 ppm runs as follows: under setting [10], 51 to 75%; under setting [12], 0 to 25%.

With `Cn1ccc(COc2ncc(F)c(NSc3ccccc3[N+](=O)[O-])n2)n1` [Compound 366], the pest or weed control at 25 ppm reads like this: under setting [5], 76 to 100%; under setting [7], 51 to 75%. In addition, the pest or weed control at 100 ppm runs as follows: under setting [6], 76 to 100%; under setting [8], 76 to 100%.

`N#Cc1cc(COc2ncc(F)c(N)n2)ccn1` [Compound 437]: the pest or weed control at 25 ppm under setting [5] was 0 to 25% and the pest or weed control at 25 ppm under setting [7] was in the range of 0 to 25%. The pest or weed control at 100 ppm by setting is: under setting [6], 51 to 75%; under setting [8], 51 to 75%.

`Fc1ccccc1CNc1nc(OCc2ccc3c(c2)OCO3)ncc1F` [Compound 928]: for the setting “24 h, one day protectant”, the pest or weed control at 50 ppm lay in the range of 76 to 100% and the pest or weed control at 200 ppm was in the range of 76 to 100%.

As for `Cc1cc(C)cc(COc2ncc(F)c(N)n2)c1` [Compound 564], the pest or weed control at 25 ppm runs as follows: under setting [9], 51 to 75%; under setting [11], 26 to 50%. For the same compound, the pest or weed control at 100 ppm by setting is: under setting [10], 76 to 100%; under setting [12], 76 to 100%.

On to `Cc1ccc(COc2ncc(F)c(/N=C3\CCCCN3C)n2)cc1` [Compound 377], for which the pest or weed control at 25 ppm is 76 to 100% under setting [5] and 51 to 75% under setting [7]. For the same compound, the pest or weed control at 100 ppm runs as follows: under setting [6], 76 to 100%; under setting [8], 76 to 100%.

As to `Nc1nc(OC2CCCCC2)ncc1F` [Compound 848], for the setting “24 h, one day protectant”, the pest or weed control at 50 ppm was 0 to 25% and the pest or weed control at 200 ppm fell in the range of 0 to 25%.

For `COc1ccc(COc2ncc(F)c(NCOCc3ccccc3)n2)cc1F` [Compound 709], the pest or weed control at 25 ppm reads like this: under setting [9], 0 to 25%; under setting [11], 0 to 25%. The pest or weed control at 100 ppm runs as follows: under setting [10], 76 to 100%; under setting [12], 51 to 75%.

Regarding `COc1cccc(COc2ncc(F)c(N/N=C/c3nc(C)cs3)n2)c1` [Compound 603], the pest or weed control at 25 ppm was in the range of 26 to 50% under setting [9] and 0 to 25% under setting [11]. Also, the pest or weed control at 100 ppm is, setting by setting: under setting [10], 76 to 100%; under setting [12], 0 to 25%.

`Nc1nc(OCc2c(Cl)cccc2Cl)ncc1F` [Compound 847] registered a pest or weed control at 50 ppm (24 h, one day protectant) of 76 to 100%.

Consider `CC1CC1COc1ncc(F)c(N)n1` (stereo not drawn) [Compound 747], for which the pest or weed control at 25 ppm by setting is: under setting [5], 0 to 25%; under setting [7], 51 to 75%. The pest or weed control at 100 ppm was 76 to 100% under setting [6] and 76 to 100% under setting [8].

With `Cc1cnc(CNc2nc(OCC(F)(F)F)ncc2F)cn1` [Compound 818], under “24 h, one day protectant”, the pest or weed control at 50 ppm was 0 to 25% and the pest or weed control at 200 ppm was in the range of 0 to 25%.

Where the note is “24 h, one day protectant”, `Cc1ccc(CNc2nc(OCc3ccc(Cl)cc3)ncc2F)cc1` [Compound 920] yielded a pest or weed control at 50 ppm of 76 to 100% and a pest or weed control at 200 ppm of 76 to 100%.

`CC(C)NC(=O)Nc1nc(OCc2cccc(C#N)c2)ncc1F` [Compound 548]: the pest or weed control at 25 ppm by setting is: under setting [5], 0 to 25%; under setting [7], 0 to 25%. In addition, the pest or weed control at 100 ppm runs as follows: under setting [6], 0 to 25%; under setting [8], 0 to 25%.

For `Nc1nc(OC(=O)c2snc(Cl)c2Cl)ncc1F` [Compound 428], the pest or weed control at 25 ppm fell in the range of 51 to 75% under setting [5] and 26 to 50% under setting [7]. The pest or weed control at 100 ppm is, setting by setting: under setting [6], 51 to 75%; under setting [8], 76 to 100%.
